The term Kd denotes a measure of binding affinity in units of concentration. A lower Kd goes with higher affinity.

The target of this experiment is T1, ATPase family AAA domain-containing protein 2 (Homo sapiens, UniProt Q6PL18).
T1 sequence (Q6PL18 whole entry): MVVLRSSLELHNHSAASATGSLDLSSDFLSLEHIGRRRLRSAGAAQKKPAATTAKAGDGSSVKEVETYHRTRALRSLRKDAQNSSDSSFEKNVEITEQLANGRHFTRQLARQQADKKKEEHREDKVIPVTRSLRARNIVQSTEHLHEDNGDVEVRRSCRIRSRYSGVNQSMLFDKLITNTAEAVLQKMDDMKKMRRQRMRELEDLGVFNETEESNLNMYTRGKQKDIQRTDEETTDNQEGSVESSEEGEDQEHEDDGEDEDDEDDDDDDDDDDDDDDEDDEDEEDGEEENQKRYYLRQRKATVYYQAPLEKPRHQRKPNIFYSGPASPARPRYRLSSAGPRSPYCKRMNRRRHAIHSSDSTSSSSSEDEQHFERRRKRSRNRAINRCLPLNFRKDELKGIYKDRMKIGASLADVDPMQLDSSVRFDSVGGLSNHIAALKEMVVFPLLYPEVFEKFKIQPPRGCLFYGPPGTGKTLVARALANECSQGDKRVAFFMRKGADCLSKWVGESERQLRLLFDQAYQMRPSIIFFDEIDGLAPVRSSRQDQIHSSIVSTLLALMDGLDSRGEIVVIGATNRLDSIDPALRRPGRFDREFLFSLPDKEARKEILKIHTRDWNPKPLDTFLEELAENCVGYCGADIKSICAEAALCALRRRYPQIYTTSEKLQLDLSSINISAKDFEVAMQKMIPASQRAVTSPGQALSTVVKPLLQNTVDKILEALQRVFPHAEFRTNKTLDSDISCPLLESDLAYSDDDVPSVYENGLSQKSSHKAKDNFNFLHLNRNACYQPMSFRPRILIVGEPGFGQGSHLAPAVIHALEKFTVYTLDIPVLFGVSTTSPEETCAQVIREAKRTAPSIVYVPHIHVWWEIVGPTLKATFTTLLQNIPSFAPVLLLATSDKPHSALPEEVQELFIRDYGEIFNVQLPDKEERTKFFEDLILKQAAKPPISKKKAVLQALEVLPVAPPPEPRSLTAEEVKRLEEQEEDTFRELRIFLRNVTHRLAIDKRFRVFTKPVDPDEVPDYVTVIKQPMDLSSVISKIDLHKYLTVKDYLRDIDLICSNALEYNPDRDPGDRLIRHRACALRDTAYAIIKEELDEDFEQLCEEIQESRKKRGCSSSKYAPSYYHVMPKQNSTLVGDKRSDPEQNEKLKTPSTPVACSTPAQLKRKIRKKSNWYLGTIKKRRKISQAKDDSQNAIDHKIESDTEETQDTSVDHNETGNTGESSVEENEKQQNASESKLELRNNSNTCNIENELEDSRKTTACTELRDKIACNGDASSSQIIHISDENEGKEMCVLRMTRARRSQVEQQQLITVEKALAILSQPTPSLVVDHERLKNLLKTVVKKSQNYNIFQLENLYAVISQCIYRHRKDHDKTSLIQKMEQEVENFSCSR
Put plainly: Binding affinity to human ATAD2 (979 to 1108 aa) expressed in Escherichia coli BL21 (DE3) by SOFAST-HMQC NMR spectroscopy.

SMILES strings stand for the structures.

The compound `Cc1cc2c(cc1N)n(C)c(=O)n2C` had a Kd of 600 µM.

Turning to `Nc1cccc(-c2n[nH]c(-c3ccccc3)n2)c1`, the Kd came to 350 µM.
